In patent US20140121185A1 (Medicon Pharmaceuticals, Inc., priority 2012, published 2014):

Assays:
AsPC-1 = test: Pancreatic cancer cell growth, 24 h; assay type: cell-based, human; conditions: AsPC-1, escalating concentrations
Description: (§1) Cell growth was determined in the human pancreatic cancer cell lines AsPC-1, CFPAC-1, Capan-2, Panc-1 and MIA PaCa-2 after treatment with escalating concentrations of P-FTS 35 for 24 h.

CFPAC-1 = test: Pancreatic cancer cell growth, 24 h; assay type: cell-based, human; conditions: CFPAC-1, escalating concentrations
Description: as §1

Capan-2 = test: Pancreatic cancer cell growth, 24 h; assay type: cell-based, human; conditions: Capan-2, escalating concentrations
Description: as §1

MIA PaCa-2 = test: Pancreatic cancer cell growth, 24 h; assay type: cell-based, human; conditions: MIA PaCa-2, escalating concentrations
Description: as §1

Panc-1 = test: Pancreatic cancer cell growth, 24 h; assay type: cell-based, human; conditions: Panc-1, escalating concentrations
Description: as §1

MIA PaCa-2 cells = test: Pancreatic cancer xenograft model in nude mice; assay type: in vivo; conditions: for reduction of tumor volume growth: day 25
Description: The in vivo chemotherapeutic potential of P-FTS 35 was assessed using a pancreatic cancer xenograft model. MIA PaCa-2 cells were injected subcutaneously into the flank areas of nude mice. When palpable tumors were observed, the mice received P-FTS 35, 50 or 100 mg/kg/d by oral gavage in corn oil or just corn oil (control) for 25 days. On day 25 of treatment, P-FTS 35, 50 mg/kg/d, and P-FTS 35, 100 mg/kg/d reduced the tumor volume growth by 62% and 65%, respectively (p<0.05; FIG. 5).

[1] = 3-week oral toxicity in BALB/c mice; assay type: in vivo
Description: The toxicity of P-FTS 35 in mice was further examined. Groups of 6 week-old female BALB/c mice (5 mice/group) were given by oral gavage once a day for 3 weeks P-FTS 35: 0, 75, 150, 250 and 350 mg/kg. […] The (sub-chronic) maximum tolerated dose of P-FTS 35 (3-wk period of observation) was determined to be at least 350 mg/kg/d.

Ras [2] = test: Ras-GTP pull down assay in Panc-1 cells; assay type: cell-based, human; conditions: 24 h
Description: (§2) In the following experiments it was examined whether the pancreatic cancer growth inhibitory effect of P-FTS 35 is associated with down regulation of Ras signaling. For this purpose, we used the Ras-GTP pull down assay.

[3] = system: RAF/MEK/ERK and PI3K/AKT pathways; test: Immunoblots of Ras downstream effectors in Panc-1 cells; assay type: cell-based, human
Description: C: Immunoblots of p-c-RAF, c-RAF, p-MEK, MEK, p-AKT and AKT in whole cell protein extracts from Panc-1 cells treated with P-FTS 35 as indicated. Loading control: β-actin.
as §2

Ras [4] = test: Ras-GTP pull down assay in lysates from MIA PaCa-2 xenografts; assay type: in vivo, nude mice; conditions: compared to controls
Description: (§3) The inhibition of Ras by P-FTS 35 was further confirmed in vivo. The Ras-GTP pull down assay was used to test the capacity of P-FTS 35 to inhibit active Ras in fresh protein lysates from MIA PaCa-2 xenografts. Compared to controls, P-FTS 35, 50 and 100 mg/kg reduced RAS activation in xenografts by 62% and 70%, respectively (p<0.01, for both; FIG. 8A).

p-ERK and p-AKT = test: Immunoblotting of MIA PaCa-2 xenografts; assay type: in vivo, nude mice
Description: B: Immunoblots of p-ERK, ERK, p-AKT and AKT in whole cell protein extracts from MIA PaCa-2 xenografts. Loading control: β-actin.
as §3

p-c-RAF = test: Immunostaining of xenograft tissue sections; assay type: in vivo, nude mice; conditions: compared to control
p-ERK1/2 = test: Immunostaining of xenograft tissue sections; assay type: in vivo, nude mice; conditions: compared to control
Description: C: Growth of xenograft tumors treated without or with P-FTS 35 and stained for p-ERK expression. The percentage of p-ERK positive cells/field were determined and expressed as the mean±SEM (*P<0.03).
as §3

[5] = Tolerated dose in mice (PA, ASA); assay type: in vivo
Description: The ability of phospho-aspirin (PA) to prevent breast cancer (BC) was evaluated using MDA-MB-231 human BC cells xenografted into one of the mammary glands of nude mice (orthotopic xenografts). PA was administered orally, 120 mg/kg/d 1 wk prior to inoculating the cells (the standard prevention protocol); acetylsalicylic acid (ASA) was given at an equimolar dose of 40 mg/kg/d. This was the highest dose of ASA that these mice could tolerate on a long-term basis. The dose of PA represents <10% of its maximum tolerated dose (MTD≧1,600 mg/kg), but was chosen so that a comparison between PA and ASA was possible.

[6] = Levels of PA and metabolites in blood and xenografts by HPLC; assay type: in vivo, mice; conditions: for metabolites detected in plasma and xenograft tumors: mice treated with PA or ASA
Description: The levels of PA and some of its metabolites in blood and xenografts from these mice were determined by HPLC according to the methods described by G. Xie et al. (Br J Pharmacol. 2012; 167(1):222-32).

CYP 2C19 = CYP 2C19 (Homo sapiens, UniProt P33261); test: Metabolism by recombinant human CYP isoforms; assay type: in vitro ADME; conditions: recombinant human CYP 25 pmol/ml, 37° C., NADPH-regenerating solution
CYP 2C19, sequence (P33261 whole entry, canonical isoform): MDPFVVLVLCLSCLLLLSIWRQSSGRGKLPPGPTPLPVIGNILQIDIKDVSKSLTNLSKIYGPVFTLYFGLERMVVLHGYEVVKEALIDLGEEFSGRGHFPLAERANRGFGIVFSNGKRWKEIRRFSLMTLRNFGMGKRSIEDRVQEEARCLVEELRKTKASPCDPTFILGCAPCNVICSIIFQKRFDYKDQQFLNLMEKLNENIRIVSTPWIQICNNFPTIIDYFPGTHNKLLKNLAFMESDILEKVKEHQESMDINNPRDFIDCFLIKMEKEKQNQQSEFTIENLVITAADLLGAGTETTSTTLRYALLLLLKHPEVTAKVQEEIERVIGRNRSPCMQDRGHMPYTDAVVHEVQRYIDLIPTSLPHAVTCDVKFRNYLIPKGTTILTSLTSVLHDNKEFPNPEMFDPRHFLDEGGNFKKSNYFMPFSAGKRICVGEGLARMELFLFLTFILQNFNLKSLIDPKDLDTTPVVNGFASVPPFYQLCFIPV

CYP 2D6 = CYP 2D6 (Homo sapiens, UniProt P10635); test: Metabolism by recombinant human CYP isoforms; assay type: in vitro ADME; conditions: recombinant human CYP 25 pmol/ml, 37° C., NADPH-regenerating solution
CYP 2D6, sequence (P10635 whole entry, canonical isoform): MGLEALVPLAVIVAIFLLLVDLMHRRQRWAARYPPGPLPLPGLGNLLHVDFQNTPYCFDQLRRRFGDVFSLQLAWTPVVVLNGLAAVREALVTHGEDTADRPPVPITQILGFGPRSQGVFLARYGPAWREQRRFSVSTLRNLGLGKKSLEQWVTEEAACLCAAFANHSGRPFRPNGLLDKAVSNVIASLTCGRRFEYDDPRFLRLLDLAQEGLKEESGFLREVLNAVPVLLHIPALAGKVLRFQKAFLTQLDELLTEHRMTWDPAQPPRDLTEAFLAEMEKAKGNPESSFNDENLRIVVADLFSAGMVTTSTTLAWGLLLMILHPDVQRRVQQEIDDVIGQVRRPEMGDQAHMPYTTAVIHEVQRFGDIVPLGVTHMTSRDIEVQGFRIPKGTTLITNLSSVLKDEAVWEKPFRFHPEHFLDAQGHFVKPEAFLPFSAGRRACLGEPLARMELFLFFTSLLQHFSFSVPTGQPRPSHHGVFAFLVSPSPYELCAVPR

CYP 1A2 = CYP 1A2 (Homo sapiens, UniProt P05177); test: Metabolism by recombinant human CYP isoforms; assay type: in vitro ADME; conditions: recombinant human CYP 25 pmol/ml, 37° C., NADPH-regenerating solution
CYP 1A2, sequence (P05177 whole entry, canonical isoform): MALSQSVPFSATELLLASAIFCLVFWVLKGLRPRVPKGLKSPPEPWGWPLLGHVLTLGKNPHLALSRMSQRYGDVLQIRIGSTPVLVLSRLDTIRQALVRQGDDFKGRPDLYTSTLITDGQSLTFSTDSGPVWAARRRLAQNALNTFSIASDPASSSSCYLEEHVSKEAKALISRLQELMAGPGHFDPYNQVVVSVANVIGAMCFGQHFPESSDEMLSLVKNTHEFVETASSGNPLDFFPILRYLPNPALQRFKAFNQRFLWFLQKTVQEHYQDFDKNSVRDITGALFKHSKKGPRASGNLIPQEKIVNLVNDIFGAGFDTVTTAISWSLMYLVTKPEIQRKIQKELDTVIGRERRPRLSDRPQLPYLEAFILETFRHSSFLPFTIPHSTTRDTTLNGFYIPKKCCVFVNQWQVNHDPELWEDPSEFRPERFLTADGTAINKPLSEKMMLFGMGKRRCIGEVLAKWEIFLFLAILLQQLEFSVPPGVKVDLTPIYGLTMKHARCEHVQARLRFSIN

CYP 2C9 = CYP 2C9 (Homo sapiens, UniProt P11712); test: Metabolism by recombinant human CYP isoforms; assay type: in vitro ADME; conditions: recombinant human CYP 25 pmol/ml, 37° C., NADPH-regenerating solution
CYP 2C9, sequence (P11712 whole entry, canonical isoform): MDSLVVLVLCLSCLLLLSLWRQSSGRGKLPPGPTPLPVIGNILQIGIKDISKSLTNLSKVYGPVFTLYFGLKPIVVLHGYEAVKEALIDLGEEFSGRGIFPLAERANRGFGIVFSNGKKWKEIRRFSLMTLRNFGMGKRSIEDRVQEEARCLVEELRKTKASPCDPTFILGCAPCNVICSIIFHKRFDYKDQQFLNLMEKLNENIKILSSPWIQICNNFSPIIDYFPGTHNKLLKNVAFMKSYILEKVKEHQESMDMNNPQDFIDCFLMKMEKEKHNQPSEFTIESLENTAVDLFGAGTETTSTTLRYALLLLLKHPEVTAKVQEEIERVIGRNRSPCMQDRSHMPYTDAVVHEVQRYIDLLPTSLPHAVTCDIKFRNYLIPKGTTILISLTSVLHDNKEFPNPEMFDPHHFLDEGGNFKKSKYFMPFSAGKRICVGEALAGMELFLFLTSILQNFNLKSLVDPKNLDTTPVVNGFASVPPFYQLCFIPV

CYP 3A4 = CYP 3A4 (Homo sapiens, UniProt P08684); test: Metabolism by recombinant human CYP isoforms; assay type: in vitro ADME; conditions: recombinant human CYP 25 pmol/ml, 37° C., NADPH-regenerating solution
CYP 3A4, sequence (P08684 whole entry, canonical isoform): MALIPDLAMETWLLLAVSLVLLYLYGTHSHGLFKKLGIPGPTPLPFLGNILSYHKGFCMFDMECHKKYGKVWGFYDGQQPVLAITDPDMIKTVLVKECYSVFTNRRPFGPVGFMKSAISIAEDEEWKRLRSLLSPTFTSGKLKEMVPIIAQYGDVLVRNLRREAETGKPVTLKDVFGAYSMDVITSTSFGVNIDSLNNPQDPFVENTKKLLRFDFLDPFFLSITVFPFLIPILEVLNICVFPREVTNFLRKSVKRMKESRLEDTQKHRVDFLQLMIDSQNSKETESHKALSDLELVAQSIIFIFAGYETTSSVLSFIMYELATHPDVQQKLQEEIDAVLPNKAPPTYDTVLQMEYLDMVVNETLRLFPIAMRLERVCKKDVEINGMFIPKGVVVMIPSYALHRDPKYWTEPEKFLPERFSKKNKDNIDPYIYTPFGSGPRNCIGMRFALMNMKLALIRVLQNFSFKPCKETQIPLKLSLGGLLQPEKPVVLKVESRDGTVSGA

liver microsomes [7] = system: liver microsomes
[8] = system: MDA-MB-231 human BC cells; test: Prevention of orthotopic MDA-MB-231 breast cancer xenografts in nude mice; assay type: in vivo; conditions: PA 120 mg/kg/d orally, from 1 wk prior to inoculating the cells
liver microsomes [9] = test: Metabolism in liver microsomes (HPLC)
[10] = cited from earlier work

Q: For `CCOP(=O)(OCC)OCCCCOC(=O)c1ccccc1SC/C=C(\C)CC/C=C(\C)CCC=C(C)C`, which “cell growth, % control” value (AsPC-1) is on record?
A: decreases pancreatic cancer cell growth in a concentration-dependent manner

Q: What about the “cell growth, % control” value (CFPAC-1) of the same molecule?
A: decreases pancreatic cancer cell growth in a concentration-dependent manner

Q: And the “cell growth, % control” value (Capan-2)?
A: decreases pancreatic cancer cell growth in a concentration-dependent manner

Q: And the “cell growth, % control” value (MIA PaCa-2)?
A: decreases pancreatic cancer cell growth in a concentration-dependent manner

Q: What about the “cell growth, % control” value (Panc-1) of the same molecule?
A: decreases pancreatic cancer cell growth in a concentration-dependent manner

Q: What about the “reduction of tumor volume growth” value (MIA PaCa-2 cells; 50 mg/kg/d oral gavage in corn oil) of the same molecule?
A: 62%

Q: And the “reduction of tumor volume growth” value (MIA PaCa-2 cells; 100 mg/kg/d oral gavage in corn oil)?
A: 65%

Q: What about the “tolerability in the efficacy study” value (MIA PaCa-2 cells; 50 or 100 mg/kg/d, 25 days) of the same molecule?
A: well tolerated

Q: And the “weight loss or other signs of toxicity in the efficacy study” value (MIA PaCa-2 cells; 50 or 100 mg/kg/d, 25 days)?
A: no weight loss or other signs of toxicity

Q: And the “weight loss or other signs of toxicity” value ([1]; 75, 150, 250 and 350 mg/kg oral gavage once a day for 3 weeks, female BALB/c mice)?
A: no weight loss or other signs of toxicity

Q: And the MTD at 3 weeks ([1]; female, BALB/c, mouse, in vivo, 3-wk period of observation, oral gavage, read-out: (sub-chronic) maximum tolerated dose)?
A: ≥ 350 mg/kg/day

Q: And the “decrease of Ras-GTP compared with the parent compound (FTS)” value (Ras [2]; 50 μM)?
A: more pronounced

Q: What about the “inhibition of active Ras (Ras-GTP)” value (Ras [2]) of the same molecule?
A: significantly inhibited active Ras (Ras-GTP) in a concentration-dependent manner

Q: What about the “inhibition of the RAF/MEK/ERK and PI3K/AKT pathways” value [3] of the same molecule?
A: significant time-dependent inhibition

Q: What about the “reduction of RAS activation in xenografts” value (Ras [4]; 50 mg/kg) of the same molecule?
A: 62%

Q: What about the “reduction of RAS activation in xenografts” value (Ras [4]; 100 mg/kg) of the same molecule?
A: 70%

Q: And the “p-ERK and p-AKT in xenografts by immunoblotting” value (p-ERK and p-AKT)?
A: inhibition of p-ERK and p-AKT

Q: What about the “reduction of expression of p-c-RAF” value (p-c-RAF) of the same molecule?
A: 73%

Q: And the “reduction of expression of p-ERK1/2” value (p-ERK1/2)?
A: 71%

Q: Which “highest dose that these mice could tolerate on a long-term basis” value ([5]; nude mice) does the source give for `CC(=O)Oc1ccccc1C(=O)O` [ASA, acetylsalicylic acid] here?
A: 40 mg/kg/day

Q: And the “metabolites detected in plasma and xenograft tumors” value [6]?
A: Only salicylic acid (SA) was detected

Q: And the “oxidation (conversion of PSA to 5-OH-PSA) by CYP 2C19” value (CYP 2C19)?
A: cannot be oxidized

Q: And the “oxidation (conversion of PSA to 5-OH-PSA) by CYP 2D6” value (CYP 2D6)?
A: cannot be oxidized

Q: And the “oxidation by CYP 1A2” value (CYP 1A2)?
A: cannot be oxidized

Q: What about the “oxidation by CYP 2C9” value (CYP 2C9) of the same molecule?
A: cannot be oxidized

Q: What about the “oxidation by CYP 3A4” value (CYP 3A4) of the same molecule?
A: cannot be oxidized

Q: And the “oxidation by liver microsomes” value (liver microsomes [7])?
A: not appreciably oxidized

Q: With `CCOP(=O)(OCC)OCCCCOC(=O)c1ccccc1OC(C)=O` [PA, phospho-aspirin] as the molecule, how does the “average tumor volume reduced compared to controls” value [8] read?
A: 62%

Q: And the “treated mice that had no tumors” value ([8]; of the 20 treated mice)?
A: 20%

Q: And the “treated mice that had tumors <100 mm^3” value ([8]; of the 20 treated mice)?
A: 30%

Q: What about the “maximum tolerated dose (MTD)” value ([5]; mice) of the same molecule?
A: ≥ 1,600 mg/kg

Q: What about the “intact PA in plasma or xenografts” value ([6]; mice treated with PA 120 mg/kg/d, HPLC) of the same molecule?
A: No intact PA in either plasma or xenografts was detected

Q: And the “metabolites detected in plasma and xenograft tumors” value [6]?
A: Only salicylic acid (SA) was detected

Q: And the “difference in SA levels between PA and ASA groups” value ([6]; plasma and xenografts)?
A: no difference in SA levels

Q: What about the “major metabolites detected in liver microsomes” value (liver microsomes [9]; HPLC) of the same molecule?
A: phospho-salicylic acid [PSA], 3-OH-PSA and 5-OH-PSA

Q: And the “deacetylation in liver microsomes” value (liver microsomes [9]; PA-treated liver microsomes)?
A: readily deacetylated

Q: For `O=C(O)c1ccccc1O` [SA, salicylic acid], which “oxidation by liver microsomes” value (liver microsomes [7]) is on record?
A: not appreciably oxidized

Q: With `CC1=C(CC(=O)O)c2cc(F)ccc2/C1=C\c1ccc([S+](C)[O-])cc1` (stereo not drawn) [sulindac] as the molecule, how does the “gastrointestinal side effects, share of patients” value [10] read?
A: up to 20%

Q: And the “skin rash and pruritus, share of patients” value [10]?
A: 5%
